For assay [1], the target named is Death-associated protein kinase 2 (Homo sapiens) (UniProt Q9UIK4). The note with it: at 10 µM.
The target in assay [2] is T1, Testis-specific serine/threonine-protein kinase 1 (Homo sapiens) (UniProt Q9BXA7).
T1 sequence (whole entry): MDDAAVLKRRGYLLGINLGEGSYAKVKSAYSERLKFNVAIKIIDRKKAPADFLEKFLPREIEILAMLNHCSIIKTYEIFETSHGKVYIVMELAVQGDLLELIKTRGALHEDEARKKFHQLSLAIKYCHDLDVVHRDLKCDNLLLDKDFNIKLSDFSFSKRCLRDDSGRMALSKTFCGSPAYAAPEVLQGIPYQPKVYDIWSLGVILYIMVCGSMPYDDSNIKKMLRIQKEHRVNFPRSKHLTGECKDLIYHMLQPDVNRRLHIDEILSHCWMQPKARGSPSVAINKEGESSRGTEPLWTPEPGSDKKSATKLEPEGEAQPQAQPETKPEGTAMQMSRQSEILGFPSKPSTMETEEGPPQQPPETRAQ
Briefly: Selectivity interaction (KinomeScan (DiscoverX)) EUB0000666a TSSK1A. As to conditions: at 10 µM.

Assay [3] concerns the target Histone-lysine N-methyltransferase KMT5B (Homo sapiens) (UniProt Q4FZB7). As to conditions: at 10 µM.
For assay [4], the target named is Tyrosine-protein kinase Fyn (Homo sapiens) (UniProt P06241). Put plainly: Selectivity interaction (KinomeScan (DiscoverX)) EUB0000229b FYN. The note with it: at 10 µM.
Assay [5] addresses T2, Serine/threonine-protein kinase BRSK2 (Homo sapiens) (UniProt Q8IWQ3).
T2 sequence (whole entry): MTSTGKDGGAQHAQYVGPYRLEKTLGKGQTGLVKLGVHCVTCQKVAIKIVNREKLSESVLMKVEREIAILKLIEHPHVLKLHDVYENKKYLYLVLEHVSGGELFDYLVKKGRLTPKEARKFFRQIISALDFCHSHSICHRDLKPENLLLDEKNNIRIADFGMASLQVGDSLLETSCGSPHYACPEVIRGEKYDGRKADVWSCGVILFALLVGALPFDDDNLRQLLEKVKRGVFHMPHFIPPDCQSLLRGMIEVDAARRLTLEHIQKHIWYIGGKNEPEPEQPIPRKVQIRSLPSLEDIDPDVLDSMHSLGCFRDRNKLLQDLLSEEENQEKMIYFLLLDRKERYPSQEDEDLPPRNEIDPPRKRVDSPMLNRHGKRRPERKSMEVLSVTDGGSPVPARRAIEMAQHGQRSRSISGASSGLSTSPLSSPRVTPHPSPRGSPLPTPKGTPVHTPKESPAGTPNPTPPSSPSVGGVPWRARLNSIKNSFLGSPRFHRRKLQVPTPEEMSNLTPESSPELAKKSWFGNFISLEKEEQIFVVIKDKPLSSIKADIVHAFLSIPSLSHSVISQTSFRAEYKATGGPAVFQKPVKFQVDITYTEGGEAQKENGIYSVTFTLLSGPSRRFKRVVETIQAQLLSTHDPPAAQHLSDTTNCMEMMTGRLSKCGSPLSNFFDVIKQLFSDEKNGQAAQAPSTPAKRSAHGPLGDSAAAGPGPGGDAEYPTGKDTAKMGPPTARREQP
Put plainly: Selectivity interaction (KinomeScan (DiscoverX)) EUB0000229b BRSK2. As to conditions: at 10 µM.

For assay [6], the target named is Calcium/calmodulin-dependent protein kinase kinase 2 (Homo sapiens) (UniProt Q96RR4). Put plainly: Selectivity interaction (ActivX KiNativ screen (kinase selectivity in THP-1 cell lysates)) EUB0000639a CAMKK2. It is filed as subcellular. As to conditions: lysate, at 0.2 µM.
For assay [7], the target named is T3, Protein kinase C epsilon type (Homo sapiens) (UniProt Q02156).
T3 sequence (whole entry): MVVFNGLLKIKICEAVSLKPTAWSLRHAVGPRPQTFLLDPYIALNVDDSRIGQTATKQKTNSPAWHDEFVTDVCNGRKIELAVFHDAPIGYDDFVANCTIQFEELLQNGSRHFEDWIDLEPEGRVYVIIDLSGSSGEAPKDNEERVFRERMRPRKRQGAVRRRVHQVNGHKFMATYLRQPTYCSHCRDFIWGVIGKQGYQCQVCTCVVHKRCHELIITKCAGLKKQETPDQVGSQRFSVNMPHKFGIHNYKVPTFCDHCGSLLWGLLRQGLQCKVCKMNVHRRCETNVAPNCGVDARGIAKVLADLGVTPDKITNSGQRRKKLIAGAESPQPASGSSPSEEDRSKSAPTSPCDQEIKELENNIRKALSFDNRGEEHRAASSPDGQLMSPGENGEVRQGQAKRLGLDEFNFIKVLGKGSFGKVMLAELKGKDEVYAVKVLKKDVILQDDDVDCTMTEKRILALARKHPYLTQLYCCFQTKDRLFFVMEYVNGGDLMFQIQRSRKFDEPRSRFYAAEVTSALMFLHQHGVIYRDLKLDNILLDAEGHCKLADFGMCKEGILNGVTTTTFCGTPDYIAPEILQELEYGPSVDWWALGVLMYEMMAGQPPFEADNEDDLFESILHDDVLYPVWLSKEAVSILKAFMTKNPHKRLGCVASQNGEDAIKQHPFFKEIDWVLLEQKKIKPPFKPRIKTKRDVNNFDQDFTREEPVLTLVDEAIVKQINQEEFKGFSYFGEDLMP
The note with it: at 10 µM.

Assay [8] has as its target Serine/threonine-protein kinase Chk2 (Homo sapiens) (UniProt O96017). Put plainly: Selectivity interaction (KinomeScan (DiscoverX)) EUB0001049a CHEK2. As to conditions: at 1 µM.
For assay [9], the target named is DNA-dependent protein kinase catalytic subunit (Homo sapiens) (UniProt P78527). Briefly: Selectivity interaction (ProQinase) EUB0000171b PRKDC.
DNA-dependent protein kinase catalytic subunit (Homo sapiens), sequence (P78527 whole entry): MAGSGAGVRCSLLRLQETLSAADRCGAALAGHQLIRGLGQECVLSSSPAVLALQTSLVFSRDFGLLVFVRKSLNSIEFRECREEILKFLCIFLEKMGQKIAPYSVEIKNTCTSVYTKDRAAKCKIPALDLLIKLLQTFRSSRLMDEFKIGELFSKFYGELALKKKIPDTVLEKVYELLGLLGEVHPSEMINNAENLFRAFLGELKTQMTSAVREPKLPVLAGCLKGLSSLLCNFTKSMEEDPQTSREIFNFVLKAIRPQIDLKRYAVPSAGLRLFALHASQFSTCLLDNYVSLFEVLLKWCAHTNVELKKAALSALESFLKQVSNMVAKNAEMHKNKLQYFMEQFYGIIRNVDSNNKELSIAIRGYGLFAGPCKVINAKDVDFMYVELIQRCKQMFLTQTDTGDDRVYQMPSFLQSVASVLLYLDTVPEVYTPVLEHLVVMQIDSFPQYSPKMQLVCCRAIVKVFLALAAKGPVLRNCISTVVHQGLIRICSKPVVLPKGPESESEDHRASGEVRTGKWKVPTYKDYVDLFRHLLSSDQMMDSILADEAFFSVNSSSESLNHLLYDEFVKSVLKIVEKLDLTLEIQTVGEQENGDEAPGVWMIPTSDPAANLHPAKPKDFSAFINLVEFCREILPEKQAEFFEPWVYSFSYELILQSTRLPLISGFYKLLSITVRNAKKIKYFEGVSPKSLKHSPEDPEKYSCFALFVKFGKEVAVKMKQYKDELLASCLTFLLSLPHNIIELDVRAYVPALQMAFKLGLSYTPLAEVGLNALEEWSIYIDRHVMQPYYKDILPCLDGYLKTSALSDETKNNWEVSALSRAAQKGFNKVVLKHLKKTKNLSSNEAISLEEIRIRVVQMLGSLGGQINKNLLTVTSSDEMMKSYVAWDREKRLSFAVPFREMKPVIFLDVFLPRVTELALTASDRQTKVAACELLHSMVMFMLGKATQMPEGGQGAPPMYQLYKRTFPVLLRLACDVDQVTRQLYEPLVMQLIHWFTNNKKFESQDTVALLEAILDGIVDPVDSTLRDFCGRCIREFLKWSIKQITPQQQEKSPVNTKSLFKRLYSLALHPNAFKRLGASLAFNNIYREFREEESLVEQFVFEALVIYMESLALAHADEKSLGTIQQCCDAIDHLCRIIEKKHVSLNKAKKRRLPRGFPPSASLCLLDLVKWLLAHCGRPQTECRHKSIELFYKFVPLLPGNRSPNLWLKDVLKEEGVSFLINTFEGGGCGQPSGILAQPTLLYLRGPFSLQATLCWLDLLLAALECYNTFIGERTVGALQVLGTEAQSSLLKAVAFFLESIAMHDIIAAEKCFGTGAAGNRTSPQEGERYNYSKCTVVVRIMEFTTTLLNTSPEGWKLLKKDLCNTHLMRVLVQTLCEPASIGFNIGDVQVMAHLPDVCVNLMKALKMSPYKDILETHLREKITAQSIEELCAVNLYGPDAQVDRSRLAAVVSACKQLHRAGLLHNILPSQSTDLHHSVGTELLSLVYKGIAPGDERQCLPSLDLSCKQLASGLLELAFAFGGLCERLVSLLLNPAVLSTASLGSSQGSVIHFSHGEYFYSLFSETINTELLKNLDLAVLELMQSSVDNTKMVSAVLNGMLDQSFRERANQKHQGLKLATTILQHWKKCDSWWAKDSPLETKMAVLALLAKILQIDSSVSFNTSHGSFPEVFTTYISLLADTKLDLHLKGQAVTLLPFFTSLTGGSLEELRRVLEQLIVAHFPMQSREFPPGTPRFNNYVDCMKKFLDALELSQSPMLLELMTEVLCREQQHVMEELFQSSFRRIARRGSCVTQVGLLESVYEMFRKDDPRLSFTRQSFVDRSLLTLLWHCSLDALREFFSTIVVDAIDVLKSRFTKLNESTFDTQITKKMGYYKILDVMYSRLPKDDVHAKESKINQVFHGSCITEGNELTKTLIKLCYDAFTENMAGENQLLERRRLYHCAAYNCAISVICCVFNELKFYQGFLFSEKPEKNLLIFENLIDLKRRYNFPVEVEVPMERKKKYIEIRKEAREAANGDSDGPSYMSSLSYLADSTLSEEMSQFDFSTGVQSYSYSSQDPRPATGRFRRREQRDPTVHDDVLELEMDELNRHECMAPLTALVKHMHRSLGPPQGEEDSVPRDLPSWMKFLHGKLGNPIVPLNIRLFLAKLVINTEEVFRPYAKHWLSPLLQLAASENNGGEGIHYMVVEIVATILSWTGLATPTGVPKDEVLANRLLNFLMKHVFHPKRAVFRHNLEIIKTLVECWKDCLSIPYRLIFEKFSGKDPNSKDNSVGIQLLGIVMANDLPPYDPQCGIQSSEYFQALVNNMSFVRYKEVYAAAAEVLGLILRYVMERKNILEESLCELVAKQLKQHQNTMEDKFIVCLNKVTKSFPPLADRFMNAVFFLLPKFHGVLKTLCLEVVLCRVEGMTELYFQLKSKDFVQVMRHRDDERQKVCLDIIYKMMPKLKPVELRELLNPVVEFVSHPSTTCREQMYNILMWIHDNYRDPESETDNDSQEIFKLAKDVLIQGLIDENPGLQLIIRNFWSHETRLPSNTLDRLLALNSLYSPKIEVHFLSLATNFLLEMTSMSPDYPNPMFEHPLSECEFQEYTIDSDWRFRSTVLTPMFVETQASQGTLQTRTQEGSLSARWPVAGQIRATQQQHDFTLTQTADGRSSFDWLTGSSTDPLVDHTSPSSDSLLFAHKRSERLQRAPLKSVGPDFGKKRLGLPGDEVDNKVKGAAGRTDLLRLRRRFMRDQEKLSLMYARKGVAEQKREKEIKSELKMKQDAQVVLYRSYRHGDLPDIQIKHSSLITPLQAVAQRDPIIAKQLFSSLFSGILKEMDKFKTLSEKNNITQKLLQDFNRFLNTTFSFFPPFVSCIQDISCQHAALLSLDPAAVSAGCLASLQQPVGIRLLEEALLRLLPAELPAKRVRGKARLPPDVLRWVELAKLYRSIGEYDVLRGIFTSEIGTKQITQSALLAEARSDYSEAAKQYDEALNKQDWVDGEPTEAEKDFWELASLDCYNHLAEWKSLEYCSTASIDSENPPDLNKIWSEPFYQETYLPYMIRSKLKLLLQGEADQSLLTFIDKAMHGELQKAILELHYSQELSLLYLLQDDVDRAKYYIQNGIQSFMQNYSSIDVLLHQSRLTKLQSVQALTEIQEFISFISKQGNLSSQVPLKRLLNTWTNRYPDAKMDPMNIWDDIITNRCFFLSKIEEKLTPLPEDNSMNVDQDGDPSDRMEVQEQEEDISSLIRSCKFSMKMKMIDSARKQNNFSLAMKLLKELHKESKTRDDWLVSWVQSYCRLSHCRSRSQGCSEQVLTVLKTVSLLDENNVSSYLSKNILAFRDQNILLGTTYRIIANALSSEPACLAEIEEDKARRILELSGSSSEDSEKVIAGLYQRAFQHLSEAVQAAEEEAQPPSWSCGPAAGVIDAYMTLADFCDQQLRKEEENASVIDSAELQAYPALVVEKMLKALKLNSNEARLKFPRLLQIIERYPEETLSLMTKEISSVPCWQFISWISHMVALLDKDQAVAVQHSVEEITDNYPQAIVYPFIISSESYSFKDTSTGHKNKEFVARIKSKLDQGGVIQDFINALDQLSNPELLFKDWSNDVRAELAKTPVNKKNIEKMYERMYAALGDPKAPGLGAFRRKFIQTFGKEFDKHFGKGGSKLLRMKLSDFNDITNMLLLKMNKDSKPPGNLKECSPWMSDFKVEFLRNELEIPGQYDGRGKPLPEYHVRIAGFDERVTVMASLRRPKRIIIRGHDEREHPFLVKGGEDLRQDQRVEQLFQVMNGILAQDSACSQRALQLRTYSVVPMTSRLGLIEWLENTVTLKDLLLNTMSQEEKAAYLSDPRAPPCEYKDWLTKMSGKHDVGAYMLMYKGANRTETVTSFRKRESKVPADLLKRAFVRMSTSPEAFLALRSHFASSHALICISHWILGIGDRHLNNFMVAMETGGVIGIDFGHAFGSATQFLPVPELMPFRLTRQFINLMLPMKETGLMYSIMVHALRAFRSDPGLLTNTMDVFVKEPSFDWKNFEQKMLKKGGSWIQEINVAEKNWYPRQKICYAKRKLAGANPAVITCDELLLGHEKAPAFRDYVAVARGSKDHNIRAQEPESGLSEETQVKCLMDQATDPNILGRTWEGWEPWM
For assay [10], the target named is Chromatin remodeling regulator CECR2 (Homo sapiens, UniProt Q9BXF3). Put plainly: Selectivity interaction (Bromodomain panel (DSF asssay)) EUB0000270b CECR2.
The target in assay [11] is Ribosomal protein S6 kinase alpha-4 (Homo sapiens) (UniProt O75676). Briefly: Selectivity interaction (KinomeScan (DiscoverX)) EUB0000595a RPS6KA4. The note with it: at 10 µM.

Serine/threonine-protein kinase Chk2 (Homo sapiens), sequence (O96017 whole entry): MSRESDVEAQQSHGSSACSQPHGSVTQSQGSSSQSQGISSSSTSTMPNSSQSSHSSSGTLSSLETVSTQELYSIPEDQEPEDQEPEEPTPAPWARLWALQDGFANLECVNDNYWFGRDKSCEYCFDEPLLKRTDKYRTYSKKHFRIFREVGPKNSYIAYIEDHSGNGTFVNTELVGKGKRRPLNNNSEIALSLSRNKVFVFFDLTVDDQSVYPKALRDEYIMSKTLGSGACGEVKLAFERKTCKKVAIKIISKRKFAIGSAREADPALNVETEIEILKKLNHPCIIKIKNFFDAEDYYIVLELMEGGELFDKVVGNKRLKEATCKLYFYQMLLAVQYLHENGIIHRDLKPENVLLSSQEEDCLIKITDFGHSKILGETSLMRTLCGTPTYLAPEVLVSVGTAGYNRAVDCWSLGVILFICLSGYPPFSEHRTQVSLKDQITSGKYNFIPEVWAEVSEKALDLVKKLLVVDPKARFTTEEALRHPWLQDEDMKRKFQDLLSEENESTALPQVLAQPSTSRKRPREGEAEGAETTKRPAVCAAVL
Death-associated protein kinase 2 (Homo sapiens), sequence (Q9UIK4 whole entry, looked up): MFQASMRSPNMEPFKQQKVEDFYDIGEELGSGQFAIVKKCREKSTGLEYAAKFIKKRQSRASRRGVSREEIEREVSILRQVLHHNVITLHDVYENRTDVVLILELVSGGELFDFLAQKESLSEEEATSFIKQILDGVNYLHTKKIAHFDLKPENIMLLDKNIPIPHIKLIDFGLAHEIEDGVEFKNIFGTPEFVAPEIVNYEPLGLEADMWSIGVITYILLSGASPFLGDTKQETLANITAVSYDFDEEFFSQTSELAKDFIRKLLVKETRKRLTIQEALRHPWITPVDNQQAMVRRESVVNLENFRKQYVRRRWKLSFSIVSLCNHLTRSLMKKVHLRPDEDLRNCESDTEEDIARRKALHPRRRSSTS

The compound `Cc1cc([C@@H](C)Nc2ccccc2C(=O)O)c2nc(N3CCOCC3)cc(=O)n2c1` [AZD-6482] came in with a % of control in assay [1] of 92%. Take `O=C(NOC[C@H](O)CO)c1ccc(F)c(F)c1Nc1ccc(I)cc1F`: in assay [2], the % of control came to 100%. Compound `CNCCN1CCC(c2cc(CN(C)C(=O)c3cccc(Oc4ccccc4)c3)ccn2)CC1` registered a % activity in assay [3] greater than 90%.

With `COc1cc(N(C)c2ccnc3ccc(C(F)(F)F)cc23)cc(OC)c1OC`, the results for the % binding in assay [4] and in assay [5] were 100% and 90%, respectively. Regarding `CC[C@@H]1[C@H](F)C(=O)N[C@@H]1COc1nccc2cc(C(N)=O)c(OC)cc12` [ZIMLOVISERTIB], the % of inhibition in [6] is -5.9%. The compound `CCN(CC)CCCCNc1ncc2cc(-c3cc(OC)cc(OC)c3)c(NC(=O)NC(C)(C)C)nc2n1` yielded a % of control in assay [7] of 100%. `COc1cc(Nc2nc(C)cc(-c3cnn4nc(OC)ccc34)n2)cc(C(F)(F)F)c1` had a % of control in [8] of 54%.

`C=CC(=O)Nc1cccc(C(=O)Nc2ccc(Nc3cc(-c4[nH]c(SC)nc4C)ccn3)cc2)c1`: the values for the % of control in assay [9] (at 1 µM) and in assay [9] (at 5 µM) were 92% and 103%, respectively. In the case of `Cc1cc(CN)cc(C)c1-c1ncn(C)c1-c1cncn1C`, in [10], the dTM is -0.68 K. Compound `COCC(=O)NC/C=C/c1ccc2ncnc(Nc3ccc(Oc4ccc(C)nc4)c(C)c3)c2c1` [CP-724714] came in with a % of control in [11] of 97%.

These data come from ChEMBL document CHEMBL5465560, “Selectivity Literature for EUbOPEN Chemogenomic Library” (2024).
